One may read the IC50 as the concentration that inhibits the measured activity by half. What is called Ki is a dissociation constant, usually derived from enzyme kinetics or from competition with a known ligand.

Data on four compounds can be found in PMC7764916, “The Cholinesterase Inhibitory Properties of Stephaniae Tetrandrae Radix” (Molecules, 2020).

Test [1] deals with T1, AChE (Mus musculus, UniProt P21836).
T1 construct: The AChE assay medium consisted of brain lysate (5 mg/mL) with testing drugs; from tissue; host or cells: mouse brain (Triton X-100 low-salt lysate)
T1 sequence (P21836 32-614): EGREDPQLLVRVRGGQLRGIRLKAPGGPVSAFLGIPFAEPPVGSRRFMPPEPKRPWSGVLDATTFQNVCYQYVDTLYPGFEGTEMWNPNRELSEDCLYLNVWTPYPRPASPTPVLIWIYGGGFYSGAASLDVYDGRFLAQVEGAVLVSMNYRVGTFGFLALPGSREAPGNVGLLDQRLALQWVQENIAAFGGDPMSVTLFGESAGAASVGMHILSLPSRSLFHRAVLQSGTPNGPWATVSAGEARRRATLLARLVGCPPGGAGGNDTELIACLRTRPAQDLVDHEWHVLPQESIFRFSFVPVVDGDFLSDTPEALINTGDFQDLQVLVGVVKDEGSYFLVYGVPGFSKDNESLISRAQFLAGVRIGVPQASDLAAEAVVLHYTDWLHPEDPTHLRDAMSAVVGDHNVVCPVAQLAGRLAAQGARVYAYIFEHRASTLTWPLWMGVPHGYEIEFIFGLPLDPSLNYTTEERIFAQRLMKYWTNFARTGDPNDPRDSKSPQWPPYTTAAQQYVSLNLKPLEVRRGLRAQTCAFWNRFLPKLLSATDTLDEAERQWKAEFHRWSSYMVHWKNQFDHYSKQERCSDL
The test can be described thus: biochemical. Here is the method:
The extracts and alkaloids of STR were tested for cholinesterase activity using a 96-well microtiter plate (Corning, NY, USA) with a final volume of 200 μL, according to the Ellman method. […] The mixture of brain lysate, Na2HPO4 buffer, and iso-OMPA solution was incubated at 37 °C for 10 min, and then the solutions of DNTB and ATCh were added.
Mouse serum (1: 50 v/v, diluted with precooled low-salt lysis buffer) was prepared for the BChE activity assay. The BChE assay medium consisted of the same composition as the AChE assay medium, except that the brain lysate and iso-OMPA were replaced with diluted serum solution and 0.1 μM BW284c51. The mixture of diluted serum, Na2HPO4 buffer, and BW284c51 solution was incubated at 37 °C for 10 min, and then the solutions of DNTB and ATCh were added. […] The concentration of DMSO in the reaction system of AChE/BChE assay was controlled at 0.5%. […] The protein concentrations were measured using the Bio-Rad Protein Assay kit (Hercules, CA, USA).

The target in a further test is T2, BChE (Mus musculus, UniProt Q03311).
T2 construct: the brain lysate and iso-OMPA were replaced with diluted serum solution and 0.1 μM BW284c51; from tissue; host or cells: mouse serum (diluted 1:50)
T2 sequence (Q03311 30-603): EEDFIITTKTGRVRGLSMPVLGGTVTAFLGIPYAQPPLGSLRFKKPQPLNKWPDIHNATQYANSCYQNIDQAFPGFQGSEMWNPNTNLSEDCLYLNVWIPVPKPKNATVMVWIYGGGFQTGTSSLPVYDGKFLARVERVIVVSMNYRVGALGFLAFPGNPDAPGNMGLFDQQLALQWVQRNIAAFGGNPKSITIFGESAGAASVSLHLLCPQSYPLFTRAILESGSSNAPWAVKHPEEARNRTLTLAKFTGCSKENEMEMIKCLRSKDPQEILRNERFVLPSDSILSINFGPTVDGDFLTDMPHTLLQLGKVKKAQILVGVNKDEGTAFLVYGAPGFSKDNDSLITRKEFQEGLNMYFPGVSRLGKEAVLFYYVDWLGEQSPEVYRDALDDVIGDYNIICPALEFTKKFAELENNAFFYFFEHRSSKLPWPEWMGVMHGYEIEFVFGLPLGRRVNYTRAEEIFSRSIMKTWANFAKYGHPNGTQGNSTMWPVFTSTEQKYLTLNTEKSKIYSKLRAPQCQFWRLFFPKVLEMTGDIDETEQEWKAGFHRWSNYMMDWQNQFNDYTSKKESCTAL
The test can be described thus: BChE activity assay (Ellman method), mouse serum. It counts as biochemical. The conditions noted are these: for BChE inhibitory activity (in words): Figure 3; for IC50: alkaloids, Figure 3B. Here is the method: Mouse serum (1: 50 v/v, diluted with precooled low-salt lysis buffer) was prepared for the BChE activity assay. The BChE assay medium consisted of the same composition as the AChE assay medium, except that the brain lysate and iso-OMPA were replaced with diluted serum solution and 0.1 μM BW284c51. The mixture of diluted serum, Na2HPO4 buffer, and BW284c51 solution was incubated at 37 °C for 10 min, and then the solutions of DNTB and ATCh were added. […] The concentration of DMSO in the reaction system of AChE/BChE assay was controlled at 0.5%. […] The AChE/BChE inhibitory activity of drugs was calculated as a percentage of the control absorbance value, AChE/BChE inhibition (%) = (1 − absorbance with inhibitor/absorbance without inhibitor) × 100%. […] The protein concentrations were measured using the Bio-Rad Protein Assay kit (Hercules, CA, USA).

In test [2] the target is T1, AChE. The test can be described thus: Enzyme kinetic analysis of AChE inhibition (Lineweaver–Burk plots). The class given is biochemical. The conditions noted are these: for type of AChE inhibition: Lineweaver–Burk plots; for Ki: estimated from Lineweaver–Burk plots, ATCh 0.040–0.625 mM. The protocol: Figure 4 The enzyme kinetic analysis of AChE inhibition by fangchinoline and cyclanoline. Different doses of fangchinoline (0.5–5 μM) and cyclanoline (30–120 μM) were added to the AChE reaction system and preincubated at 37 °C with the brain lysate, followed by the addition of a range of doses of ATCh (0.040–0.625 mM). The inhibition constants Ki were estimated from the plots of the slope versus the concentration of tested drugs. Donepezil (25 nM) served as a positive control. The data are expressed as the mean ± SEM (standard error of mean) of three […] assays, each with triplicate samples.
The Michaelis constant (Km), maximum velocity (Vmax), and inhibitory constant (Ki) were used to evaluate the kinetics of fangchinoline and cyclanoline. Lineweaver–Burk plots were then plotted using initial velocities, from which the Km and Vmax values were calculated (the absolute values of horizontal and vertical intercepts were 1/Km and 1/Vmax, respectively). The slopes of reciprocal plots were then plotted against the doses of fangchinoline and cyclanoline, and Ki values were determined as the absolute value of the x-axis intercept. Donepezil was used as a positive control. All experiments were performed in triplicate.

The mark [3] stands for this setting: alkaloids, Figure 3B, read-out: AChE IC50.

Where two headings read alike, the source gives them in different places.

Take `COc1ccc2cc1Oc1ccc(cc1)C[C@H]1c3cc(c(OC)cc3CCN1C)Oc1c(OC)c(OC)cc3c1[C@H](C2)N(C)CC3` [tetrandrine]: the “AChE inhibitory activity (in words)” value at AChE [1] (Figure 3) is “no inhibitory activity on AChE at the maximal dissolvable concentration”. Further, the “BChE inhibitory activity (in words)” value at BChE is listed as “no or little inhibitory activity on BChE”.

Turning to `COc1ccc2cc1Oc1ccc(cc1)C[C@H]1c3cc(c(OC)cc3CCN1C)Oc1c(O)c(OC)cc3c1[C@H](C2)N(C)CC3` [fangchinoline], the half-maximal inhibitory concentration (IC50) at AChE [1] (Figure 5A, ATCh 0.625 mM, read-out: AChE IC50 (single drug, synergy experiment)) stood at 2.12 ± 0.16 µM. Besides, at AChE [1] (setting [3]), the IC50 stood at 2.58 ± 0.28 µM. The “BChE inhibitory activity (in words)” value on BChE was “no inhibitory activity on BChE”. On AChE [2], the “type of AChE inhibition” value is on record as “noncompetitive” and the inhibition constant (Ki) was 1.79 µM.

In the case of `COc1ccc2c3c1O[C@H]1C[C@@H](O)C=C[C@@]31CCN(C)C2` [Galanthamine, galanthamine, reference compound], at BChE, the half-maximal inhibitory concentration (IC50) worked out at 49.8 ± 2.5 µM.

`COc1cc2c(cc1O)[C@@H]1Cc3ccc(OC)c(O)c3C[N@+]1(C)CC2` [cyclanoline]: the IC50 on AChE [1] (setting [3]) worked out at 106 ± 2.29 µM. Inhibition at BChE was half-maximal at 247 ± 5.46 µM (IC50). For the same compound, at AChE [2], the “type of AChE inhibition” value is “noncompetitive” and the inhibition constant (Ki) was 72.3 µM.
